Laboratory results: ChEMBL document CHEMBL1148052, “Cylindrene, a novel sesquiterpenoid from Imperata cylindrica with inhibitory activity on contractions of vascular smooth muscle” (1994)
Calls of active or inactive are those of the source. The rule behind the calls is not given here.

What was measured:
Aorta [1] = assay: Inhibition of KCl-induced contraction in rabbit aorta at 100 nM; type: functional, tissue-based; conditions: Oryctolagus cuniculus
Aorta [2] = assay: Inhibition of KCl-induced contraction in rabbit aorta at 300 uM; type: functional; conditions: Oryctolagus cuniculus

Row | SMILES | Activity (Aorta [1]) | inhibition at 300 µM (Aorta [2])
1 | NC[C@H](O)c1ccc(O)c(O)c1 | inactive | –
2 | CC(=O)c1cc(C(C)C)c2c(c1)C(C)(O)CC2 (configuration not stated) [CYLINDRENE] | – | 40%
